Broadly, the inhibition is the change of the read-out against control, counted positive when it falls. High values mean strong suppression, low ones little suppression.

Among the data in US5034512A, “Branched backbone renin inhibitors” (Warner-Lambert Company, priority 1988, dated 1991) are inhibition and IC50 values, retold here.

For the first assay, the target named is T1, renin (Homo sapiens, UniProt P00797).
T1 sequence (P00797 67-406): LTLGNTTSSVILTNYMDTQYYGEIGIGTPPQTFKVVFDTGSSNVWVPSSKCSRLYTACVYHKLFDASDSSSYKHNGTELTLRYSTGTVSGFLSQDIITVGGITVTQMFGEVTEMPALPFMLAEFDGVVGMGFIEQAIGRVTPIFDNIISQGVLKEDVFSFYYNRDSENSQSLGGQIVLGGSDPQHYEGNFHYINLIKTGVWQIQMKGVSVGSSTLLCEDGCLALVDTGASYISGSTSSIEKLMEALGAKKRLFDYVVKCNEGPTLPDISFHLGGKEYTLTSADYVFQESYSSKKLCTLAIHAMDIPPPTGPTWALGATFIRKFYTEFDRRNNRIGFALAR
The experiment in a line: in vitro renin inhibitory activity, radioimmunoassay for angiotensin I. The assay is classed as biochemical. As to conditions: 10^-6 M test compound; renin incubated two hours at 37° with angiotensinogen. The procedure: The effectiveness of the aforementioned compound is determined by a test for in vitro renin inhibitory activity. This activity is determined by a standard radioimmunoassay for angiotensin I. In this assay the enzyme, renin, incubated for two hours at 37° in the presence of a substrate, angiotensinogen, generates the product, angiotensin I. Test compounds are added to the incubation mixture. Relative activity is reported as the IC50, which is the molar concentration of test compound causing a 50% inhibition of the renin activity. Relative activity is also reported as % inhibition at 10^-6 M,
With `CNC(=O)CCNC(=O)C[C@H](NC(=O)C(Cc1cccc2ccccc12)Cc1cccc2ccccc12)C(=O)N[C@@H](CC1CCCCC1)[C@@H](O)CC(=O)N[C@@H](CC(C)C)C(=O)NCc1ccccc1` [Example 6], testing at 1 µM gave an inhibition of 47%.

Staying with this assay, now noted: renin incubated two hours at 37° with angiotensinogen; read-out: IC50 (molar concentration of test compound causing a 50% inhibition of the renin activity).
Regarding `COC(=O)[C@H](CCS(C)(=O)=O)NC(=O)C[C@H](NC(=O)C(Cc1cccc2ccccc12)Cc1cccc2ccccc12)C(=O)N[C@@H](CC1CCCCC1)[C@@H](O)CC(=O)N[C@@H](CC(C)C)C(=O)NCc1ccccc1` [Example 3], the IC50 is 3500 nM.
Turning to `CC[C@H](C)CNC(=O)C[C@H](O)[C@H](CC(C)C)NC(=O)[C@H](CCCCNC(=O)CNC(=NC#N)NC)NC(=O)C(Cc1cccc2ccccc12)Cc1cccc2ccccc12` [Example 20], the IC50 came out at 30 nM.
As for `CC[C@H](C)CNC(=O)C[C@H](O)[C@H](CC(C)C)NC(=O)[C@H](CCCCNC(=O)[C@@H]1CCC(=O)N1)NC(=O)C(Cc1cccc2ccccc12)Cc1cccc2ccccc12` [Example 15], the IC50 came to 43 nM.
As to `CC[C@H](C)CNC(=O)C[C@H](O)[C@H](CC(C)C)NC(=O)[C@H](CCCCNC(=O)[C@@H]1CSCN1C(C)=O)NC(=O)C(Cc1cccc2ccccc12)Cc1cccc2ccccc12` [Example 13], the IC50 turned out to be 1100 nM.
In the case of `CC[C@H](C)CNC(=O)C[C@H](O)[C@H](CC(C)C)NC(=O)[C@H](CCCCNC(=O)CNC(=O)C(C)C)NC(=O)C(Cc1cccc2ccccc12)Cc1cccc2ccccc12` [Example 17], the IC50 worked out at 74 nM.
Same read-out and setting: for `CC[C@H](C)CNC(=O)C[C@H](O)[C@H](CC(C)C)NC(=O)[C@H](CCCCNC(=O)[C@@H]1CS(=O)(=O)CN1C(C)=O)NC(=O)C(Cc1cccc2ccccc12)Cc1cccc2ccccc12` [Example 14] the value was 470 nM; for `CC[C@H](C)CNC(=O)C[C@H](O)[C@H](CC(C)C)NC(=O)[C@H](CCCCNC(=O)CCNC(C)=O)NC(=O)C(Cc1cccc2ccccc12)Cc1cccc2ccccc12` [Example 16], 25 nM; for `CC[C@H](C)CNC(=O)C[C@H](O)[C@H](CC(C)C)NC(=O)[C@H](CCCCNC(=O)CNC(=S)NC)NC(=O)C(Cc1cccc2ccccc12)Cc1cccc2ccccc12` [Example 10], 80 nM.
Still for that read-out and setting: to `CC[C@H](C)CNC(=O)C[C@H](O)[C@H](CC(C)C)NC(=O)[C@H](CCCCNC(=O)CNC(N)=N[N+](=O)[O-])NC(=O)C(Cc1cccc2ccccc12)Cc1cccc2ccccc12` [Example 19] belongs 8 nM; to `CNC(=S)CNC(=O)C[C@H](NC(=O)C(Cc1cccc2ccccc12)Cc1cccc2ccccc12)C(=O)N[C@@H](CC1CCCCC1)[C@@H](O)CC(=O)N[C@@H](CC(C)C)C(=O)NCc1ccccc1` [Example 5], 240 nM; to `CC[C@H](C)CNC(=O)C[C@H](O)[C@H](CC(C)C)NC(=O)[C@H](CCC(=O)NCC(=S)NC)NC(=O)C(Cc1cccc2ccccc12)Cc1cccc2ccccc12` [Example 1], 9000 nM.
Same read-out and setting: to `CC[C@H](C)CNC(=O)C[C@H](O)[C@H](CC1CCCCC1)NC(=O)[C@H](CCCCNC(=O)CNC(C)=O)NC(=O)C(Cc1cccc2ccccc12)Cc1cccc2ccccc12` [Example 12] belongs 27 nM; to `CC[C@H](C)CNC(=O)C[C@H](O)[C@H](CC(C)C)NC(=O)[C@H](CCC(=O)NCC(=O)NC)NC(=O)C(Cc1cccc2ccccc12)Cc1cccc2ccccc12` [Example 2], 15000 nM; to `CC[C@H](C)CNC(=O)C[C@H](O)[C@H](CC(C)C)NC(=O)[C@H](CCCCNC(=O)CNC(=O)OCc1ccccc1)NC(=O)C(Cc1cccc2ccccc12)Cc1cccc2ccccc12` [Example 8], 83 nM.
Consider `CC[C@H](C)CNC(=O)C[C@H](O)[C@H](CC(C)C)NC(=O)[C@H](CCCCNC(=O)CNC(=O)C(F)F)NC(=O)C(Cc1cccc2ccccc12)Cc1cccc2ccccc12` [Example 18], for which the IC50 came to 62 nM.
Same read-out and setting: for `CC[C@H](C)CNC(=O)C[C@H](O)[C@H](CC(C)C)NC(=O)[C@H](CCCCNC(=O)CN)NC(=O)C(Cc1cccc2ccccc12)Cc1cccc2ccccc12` [Example 9] the value was 710 nM.
